Series [1] is described as follows: plasma stability. The series is classed as in vitro ADME. The conditions noted are these: for remaining at 3 h: plasma, read-out: Plasma Stability % remaining after 3 h. On the procedure:
(§1) Pharmacokinetic data were obtained for compound 1o at the Sanford-Burnham Medical Research Institute according to established procedures. Compound solubility in an aqueous solution was measured using an automated kinetic solubility method. The concentration of the compound in a saturated pH-buffered aqueous solution was determined via UV absorbance (250–498 nm) and compared with the spectra of a precipitation-free reference solution. The plasma stability of the compound was determined at a single concentration using species-specific plasma. The percentage of parent compound remaining after 3 h was determined via LC-MS/MS. The percentage of compound 1o bound to plasma proteins was determined through rapid equilibrium dialysis and quantified via LC-MS/MS. Metabolic stability of the compound was determined at a single concentration using species-specific liver microsomes that contained cytochrome P450s, flavin-monooxygenases, carboxyl-esterases, epoxide hydrolases, and other drug-metabolizing enzymes. The quantification was carried out via LC-MS/MS. Membrane permeability of compound 1o was measured using an in vitro model for the passive transport from the gastrointestinal tract into the blood system. A double-sink parallel artificial membrane permeability assay PAMPA, in a 96-well format was employed.

The nature of series [2]: in vitro. Particulars: Human. The series is classed as cell-based. As for the experimental part: Furthermore, cytotoxicity tests were carried out on immortalized human hepatocytes, Fa2N-4 cells (XenoTech, cat.no. IFH15), at the Sanford-Burnham Medical Research Institute. Cells were incubated with a range of concentrations (0.01–50 μM) of compound 1o for 24 h. Cell viability was determined with cellular ATP levels by using the Luminescence ATP Detection Assay System (ATPlite 1 step).

Series [3] relates to hGrx1-roGFP2 in P. falciparum 3D7. Nature of the series: cytosolic glutathione redox sensor in parasites. The series is classed as cell-based, Plasmodium falciparum. Particulars: for oxidizing effect, change of 405/488 nm fluorescence ratio: 4 h. As for the experimental part: To further study the mechanism of action of the steroid compounds and evaluate the potential involvement of redox stress, compound 1o was tested in cell culture on the chloroquine-sensitive P. falciparum 3D7 strain expressing the cytosolic glutathione redox sensor hGrx1-roGFP2 (Supplementary Note 2). […]
signals at 405/475 nm were calculated and plotted against time and/or concentration of compound 1o or redox active compounds. Data from three independent experiments were […]
100 µM for 4 h and 24 h incubations. Transfection of the Pf3D7 strain with the redox sensor was carried out, and the parasites were cultured as described under constant drug pressure with 5 nM WR99210 (Jacobus Pharmaceuticals, New Jersey, USA).45,46 P. falciparum trophozoites were enriched via magnet separation.47 Parasitemia was counted by using Giemsa-stained blood smears. The IC50 of compound 1o on P. falciparum 3D7 asexual blood stages was verified to be about 5 nM in an additional 72 h [3H] incorporation assay45 directly before the experiment. The effect of compound 1o on P. falciparum was investigated in 4 h and 24 h incubations. For 4 h experiments, trophozoite stage parasites (26-30 h post invasion) of 3D7[hGrx1-roGFP2] (6-8% parasitemia) were magnetically enriched (Miltenyi Biotec, Germany), counted by using the improved Neubauer hemocytometer (Brand GmbH, Germany), and returned to cell culture (at 0.5 x 10^6 trophozoites/µl) for at least 1 h to recover.
1.0 x 10^6 cells in 100 µl cell culture medium were placed into LoBind tubes (Eppendorf) for 4 h incubation experiments. The parasites were treated with compound 1o at 50 x, and 100 x IC and with mefloquine (MQ) as a standard antimalarial drug at 1 µM (IC = 8 nM)45 for 4 h […]
for 15 min at 37 °C. For 24 h experiments, a 5 ml culture (6-8% parasitemia) of ring stage parasites (6-10 h post invasion) was treated with compound 1o at 4 x, 10 x, 20 x IC50 and with 100 nM MQ. Prior to enrichment, cysteines were blocked with 2 mM NEM. For 4 h and 24 h experiments, cells were washed after incubation with pre-warmed Ringer’s solution […]
Hepes, 1 mM NaH2PO4, pH 7.4) and were seeded onto poly-L-lysine-coated µ-slides VI (Ibidi, Martinsried, Germany). A Leica confocal system TCS SP5 inverted microscope equipped with the objective HCX PL APO 63.0x1.30 GLYC 37 °C UV connected to a 37 °C temperature chamber was used. The argon laser power was set to 20%; scanning was performed at 400 Hz frequency and at a 512 × 512 pixel resolution. The smart gain and […]
smart offset were 950 V and -0.9%, respectively. With a sequential scan, we excited the sensor at 405 nm and at 488 nm and detected emissions at 500-550 nm. Laser intensity for both lines was adjusted to match the full dynamic range of the probe to the dynamic range of the detector (405 nm: 12%, 488 nm: 4%). Autofluorescence images were simultaneously taken at ex 405 nm / em 430-450 nm and individually defined together with the background for every image, but no fluorescence signal could be detected. All experiments included non- […]
and 10 mM DTT (2 min incubation), respectively, prior to blocking with NEM. Only parasites showing fluorescent signals at both 405 and 488 nm excitation and an intact host cell were chosen for analysis. Each experiment was carried out three times. At least 10 parasites were analyzed, resulting in at least 30 experimental values per incubation. The Leica LAS AF Lite software for fluorescence analysis was used. The 405/488 nm ratio was calculated. The obtained ratio values were normalized to the control ratio value, which was set to 100. The graphs were plotted using the GraphPad Prism 5 software (San Diego, CA, USA). One way-ANOVA test with 95% confidence intervals with the Dunnett’s Multiple Comparison Test was applied for statistical analysis of significance (*, p < 0.05; **, p < 0.01; ***, p < 0.001). […]
with 1 µM MQ. 24 h incubation (Supplementary Figure 8 panel B) with compound 1o resulted in a higher increase of the fluorescence ratio in a concentration-dependent manner. […]

Series [4] can be described thus: PAMPA membrane permeability. The series is classed as in vitro ADME. As for the experimental part: as §1
A general note: The PAMPA barrier holds no transporters, so it reflects passive diffusion.

From PMC5321741, “Arylmethylamino steroids as antiparasitic agents” (Nature Communications, 2017) come the findings set out here.

Where two headings read alike, the source gives them in different places.

For orientation: amount remaining means the share of the starting amount still present when the sample was taken. The CC50 is the concentration at which the toxic effect on the cells reaches its halfway point. A high value points to lower toxicity to the cells. For `COc1ccc2c(c1)CCC1C2CC[C@@]2(C)C1CC[C@H]2NCc1cc2ccccc2cc1O` (some centres unmarked) [1o], the “Plasma Stability % remaining after 3 h” value in series [1] (Human) is on record as 62%; in series [1] (Mouse), 58%. In addition, the fraction remaining at 3 h in series [1] (human) amounted to 62.5%; in series [1] (mouse), 58.9%. For the same compound, the CC50 at 24 h in series [2] was > 50 µM. The “change of 405/488 nm fluorescence ratio” value stood at 1.8 fold in series [3] (20 nM (4 x IC50), 24 h) and 2.4 fold in series [3] (100 nM, 24 h). Also, the “oxidizing effect, change of 405/488 nm fluorescence ratio” value in series [3] (250 nM (50 x IC50)) and in series [3] (500 nM (100 x IC50)) was “approximately 1.5 fold” in each case. The “redox ratio of the probe” value in series [3] (20, 50 and 100 nM, 24 h, not significant) is given as “dose-dependent increase of the redox ratio of the probe”. Moreover, the “PAMPA Pe” value was determined as 0 ×10⁻⁶ cm/s in series [4] (Donor pH 5.0, Acceptor pH 7.4); 0 ×10⁻⁶ cm/s in series [4] (Donor pH 6.2, Acceptor pH 7.4); 0 ×10⁻⁶ cm/s in series [4] (Donor pH 7.4, Acceptor pH 7.4). In addition, the “PAMPA permeability in words” value in series [4] (all 3 pH levels, compound well embedded in the filter membrane) is recorded as “very poorly permeable at all 3 pH levels tested”.
